Assay results reported in patent US4619943A, “Neolignans of Saururus cernuus L and analogues thereof” (priority 1984, dated 1986).
≈ marks a conversion by molar mass, not a printed value. Where “and” joins values, the source holds several entries; their conditions need not be identical. Equal entries are not always repeated.

Columns and labels:
Meloidogyne incognita = test: Nematicidal test: galls on tomato root system; format: in vivo; details: 10 days
Protocol: Juveniles of the nematode Meloidogyne incognita were placed in 10 ml vials containing 5 ml of sand each and were soaked with 3 ml of solutions of the test compound at different concentrations in 1% ethanol in water for 24 hours. Tomato seedlings (4-6" high, with roots partly trimmed) were placed in the vials which were then placed in a growth chamber at 28° for 10 days. The tests were watered as needed to keep the sand moist. After 10 days, the plants were removed, and the galls counted on each root system. Each sample was tested in replicates of 10, and the results were analyzed according to Duncan's multiple range test ([…]). The results for SC-8 are shown in Tables 3 and 4 which represent two different experiments spaced approximately two months apart. In the later test (Table 4), the amount of ethanol in the test solutions was varied.

Pimephales promelas = test: Acute toxicity to fish; format: in vivo; details: for % Mortality, Avg / % Mortality, single replicates (1 to 6): 2 hours; for % Mortality, single replicates (1 to 6): 120 min
Protocol: Many compounds having insecticidal activity also show toxicity to fish. For example, rotenoids, pyrethrins, and DDT have significant toxicity to fish. For this reason, fish have been used frequently to indicate potential insecticidal activity. The present compounds were tested for acute toxicity to fish by the method described in "Methods For Acute Toxicity Tests With Fish, Macro-Invertebrates and Amphibians", EPA 660/3-75-009, Committee on Methods for Toxicity Tests With Aquatic Organisms, Environmental Protection Agency, Corvallis, OR, 1975.
The fish, commonly known as Missouri minnows or fat heads (Pimephales promelas, family, cyprinidae) were purchased from a local hatchery and equilibrated to the new surroundings for 24 hours. They were kept in deionized water, previously adjusted to pH 6.5 with phosphate buffer at 23° C. Sufficient oxygen was provided, and the fish were deprived of food during the test period.
Groups of six fish were placed in containers with different concentrations of the test compound. The percent mortality was recorded every 30 minutes. The LC 50 values (mg/L) and 95% confidence limits were determined from the percent mortality data after 2 hours of exposure from 6 separate replicates using the method of Lichfield and Wiloxon [(J. Pharmacology and Exp. Therepeutics, 96, 99-113 (1949))].

COc1ccc(C(O)C(C)Oc2ccc([C@@H]3O[C@@H](c4ccc(OC(C)C(O)c5ccc(OC)c(OC)c5)c(OC)c4)[C@@H](C)[C@@H]3C)cc2OC)cc1OC (stereo partly drawn) [SC-8, 2α,5β-bis[3-methoxy-4-{threo-3-hydroxy-3-(3,4-dimethoxyphenyl)}isopropoxyphenyl]-3α,4β-dimethyltetrahydrofuran] was tested, and the “Number of Galls/Root System, single replicates (1 to 10)” value (“Number of Galls/Root System … (1 to 10)” for short) (Meloidogyne incognita; Table 3, 1 ppm, 1% ethanol) was 17 (2×) and 13 and 20 and 21 and 24 and 3 and 28 and 40 and 16, the “Number of Galls/Root System, Avg.” value (Meloidogyne incognita; Table 3, 1 ppm, 1% ethanol, 1% ethanol control 23.7, water 28.8) was 19.8 and the “Number of Galls/Root System … (1 to 10)” value (Meloidogyne incognita; Table 3, 5 ppm, 1% ethanol) was 26 and 34 and 3 and 0 (2×) and 19 and 24 and 4 and 14 and 13. For the same compound, the “Number of Galls/Root System, Avg.” value (Meloidogyne incognita; Table 3, 5 ppm, 1% ethanol, 1% ethanol control 23.7, water 28.8) was 13.7, the “Number of Galls/Root System … (1 to 10)” value (Meloidogyne incognita; Table 3, 10 ppm, 1% ethanol) was 14 (2×) and 17 and 18 and 1 and 2 and 42 and 29 and 3 and 7 and the “Number of Galls/Root System, Avg.” value (Meloidogyne incognita; Table 3, 10 ppm, 1% ethanol, 1% ethanol control 23.7, water 28.8) was 14.7. For the same compound, the “Number of Galls/Root System … (1 to 10)” value (Meloidogyne incognita; Table 3, 25 ppm, 1% ethanol) was 3 and 10 and 11 and 18 and 17 (2×) and 26 and 15 and 12 and 24, the “Number of Galls/Root System, Avg.” value (Meloidogyne incognita; Table 3, 25 ppm, 1% ethanol, 1% ethanol control 23.7, water 28.8) was 15.3 and the “Number of Galls/Root System … (1 to 10)” value (Meloidogyne incognita; Table 3, 50 ppm, 1% ethanol) was 12 (3×) and 15 and 16 (2×) and 20 and 21 and 18 and 7. The “Number of Galls/Root System, Avg.” value (Meloidogyne incognita; Table 3, 50 ppm, 1% ethanol, 1% ethanol control 23.7, water 28.8) was 14.9, the “Number of Galls/Root System … (1 to 10)” value (Meloidogyne incognita; Table 4, 1 ppm, 0.01% ethanol) was 7 and 10 and 18 and 14 and 23 and 32 and 1 and 5 and 16 and 9 and the “Number of Galls/Root System, Avg.” value (Meloidogyne incognita; Table 4, 1 ppm, 0.01% ethanol, water 25.5) was 13.5. The “Number of Galls/Root System … (1 to 10)” value (Meloidogyne incognita; Table 4, 5 ppm, 0.05% ethanol) was 7 and 36 and 17 and 18 and 25 and 6 and 14 and 16 and 11, the “Number of Galls/Root System, Avg.” value (Meloidogyne incognita; Table 4, 5 ppm, 0.05% ethanol, water 25.5) was 16.7 and the “Number of Galls/Root System … (1 to 10)” value (Meloidogyne incognita; Table 4, 10 ppm, 0.1% ethanol) was 10 and 22 and 34 and 23 and 25 and 26 and 24 and 0. For the same compound, the “Number of Galls/Root System, Avg.” value (Meloidogyne incognita; Table 4, 10 ppm, 0.1% ethanol, water 25.5) was 18.4, the “Number of Galls/Root System … (1 to 10)” value (Meloidogyne incognita; Table 4, 25 ppm, 0.25% ethanol) was 1 and 8 and 30 and 2 and 28 and 7 and 14 and the “Number of Galls/Root System, Avg.” value (Meloidogyne incognita; Table 4, 25 ppm, 0.25% ethanol, water 25.5) was 10.1. For the same compound, the “Number of Galls/Root System … (1 to 10)” value (Meloidogyne incognita; Table 4, 50 ppm, 0.5% ethanol) was 12 and 4 and 0 and 22 and 8 and 1 and 5 and 34, the “Number of Galls/Root System, Avg.” value (Meloidogyne incognita; Table 4, 50 ppm, 0.5% ethanol, water 25.5) was 8.6 and the “% Mortality, Avg” value (Pimephales promelas; 0.13 mg/L) was 9%. For the same compound, the “% Mortality, single replicates (1 to 6)” value (Pimephales promelas; 0.13 mg/L) was 0% (3×) and 17% (3×), the “% Mortality, Avg” value (Pimephales promelas; 0.25 mg/L) was 28% and the “% Mortality, single replicates (1 to 6)” value (Pimephales promelas; 0.25 mg/L) was 33% (4×) and 17% (2×). The “% Mortality, Avg” value (Pimephales promelas; 0.38 mg/L) was 50%, the “% Mortality, single replicates (1 to 6)” value (Pimephales promelas; 0.38 mg/L) was 67% and 50% (4×) and 33% and the “% Mortality, Avg” value (Pimephales promelas; 0.5 mg/L) was 64%. For the same compound, the “% Mortality, single replicates (1 to 6)” value (Pimephales promelas; 0.5 mg/L) was 67% (5×) and 50%, the “% Mortality, Avg” value (Pimephales promelas; 0.75 mg/L) was 75% and the “% Mortality, single replicates (1 to 6)” value (Pimephales promelas; 0.75 mg/L) was 83% (3×) and 67% (3×). The “% Mortality, Avg” value (Pimephales promelas; 1.0 mg/L) was 97%, the “% Mortality, single replicates (1 to 6)” value (Pimephales promelas; 1.0 mg/L) was 100% (5×) and 83% and the LC50 (Pimephales promelas; 2 hours of exposure, pH 6.5, 23° C) was 0.48 µg/mL (≈ 0.655 µM).
